# Patent US20210393932A1, “DERMAL PATCHES AND GLASS SWABS FOR APPLICATION OF TOPICAL IMMUNOSENSITIZERS” (Squarex, LLC, priority 2020, published 2021)
# “Also recorded” adds a separate entry of the source.
# What was measured:
# [1] = tested on: mini pig skin; experiment: Cutaneous irritation (Draize, Primary Irritation Index) after SADBE dermal patch in Gottingen mini-pig; format: in vivo, Gottingen miniswine; conditions: for Primary Irritation Index (pII) / Primary Irritation Index (pII), transient peak: 0-8 scale; for Primary Irritation Index (pII), transient peak: after the second dose; for duration of moderate levels of irritation / time to return to non-irritating levels post-dermal-application: re-challenge; for duration of severe cutaneous irritation: re-challenge at naive site
# Experimental: (§1) A total of 6 Gottingen miniswine (3 female and 3 male) was used in this nonGLP study. Prior to dosing, the baseline body weights, group food consumption, and Draize scoring (see tables 1 and 2) for erythema and eschar formation and edema at the future dose site were recorded. A dermal patch (1 patch/animal) loaded with 20 microliters of 2, 6, or 18% SADBE drug solution was applied to animals, and left in place for ˜12 hours. Following the ˜12 hour dosing period, patch sites was assessed by Draize scoring as in Example 5, 5×/week for 21 days. […] After the 25 day assessment period, the animals were re-challenged and a second dosing and assessment phase performed for 30 days. At the end of the survival period, animals were humanely euthanized and a complete necropsy was performed. The test article vials used to prepare patches and mini-pig exposed patches were collected after application to determine SADBE content and SADBE degradation product squaric acid monobutyl ester (SAMBE) using HPLC at Squarex's Laboratory.
# Cutaneous irritation at the test site was observed and scored each day of the study by the Draize Scale for both Erythema & Eschar and Edema. The scale for each is in Tables 9 and 10 in Example 5, each on a 0-4 scale. The cumulative Erythema & Eschar and Edema score was the Primary Irritation Index score, which would therefore be on a 0-8 scale.
# The daily primary irritation index (pII) for each test article dose over the course of the study was calculated (FIG. 5). The pII is used to categorize the test article treatments as negligible to not irritating (0-0.9), slight (0.9-1.9), moderate (2-4.9) or severe (5-8) irritation potential.
# [2] = tested on: herpes labialis (cold sores or oral herpes); conditions: cited from earlier work
# [3] = Toxicity evaluation (body weight, food consumption, clinical observation, histopathology) in guinea pig; format: in vivo
# Text: (§2) The purpose of this nonGLP study was to evaluate the effect of various concentrations of SADBE delivered via dermal patch, for dose site irritation and toxicity endpoints such as body weights, group food consumption, clinical observation, pre-termination clinical pathology, gross and histopathology.
# Thirty (30) guinea pigs (15 female and 15 male) were utilized for this nonGLP study. Prior to and post dosing (dermal patches loaded with 20 microliters of 2, 6, or 18% SADBE drug solution) body weights, group food consumption, and Draize scoring for erythema, eschar formation, and edema at the dose site were be recorded. The dermal patch loaded with SADBE was applied to animals, and left in place for ˜12 hours plus/minus 1 hour. Following the ˜12 hour dosing period, patch sites was assessed by Draize scoring. […] After the 28 days assessment period, re challenge was performed, a second patch (not treated during the induction phase) was applied and assessed by Draize scoring.
# At the end of the survival period, blood was collected for standard hematology and serum chemistry analysis, and the animals humanely euthanized. The second dose site and cervical lymph nodes were collected at necropsy for further histopathological evaluation. Dose site was explanted, fixed, and embedded. Dose sites were examined histologically and an evaluation of cell type presence and tissue response conducted.
# [4] = Toxicity evaluation (body weight, food consumption, necropsy, histopathology) in Gottingen mini-pig; format: in vivo, Gottingen miniswine
# Text: as §2, §1
# Dose site was explanted, fixed, and embedded. Dose sites were examined histologically and an evaluation of cell type presence and tissue response conducted.
# [5] = tested on: herpes labialis outbreaks; experiment: Phase 2 multi-center placebo-controlled study of single dose SADBE in recurrent herpes labialis; format: in vivo, human
# Experimental: After institutional review board approval and written informed consent, this study was conducted at five centers in subjects with four or more herpes labialis episodes in the previous 12 months. Subjects were randomized to receive either (1) one dose of 2% SADBE in DMSO on day 1, (2) 2% SADBE on day 1 and a second lower dose (0.5%) “booster” on day 22, or (3) dimethylsulfoxide (DMSO) vehicle only on days 1 and 22. All subjects were followed for 1 year.
# Doses were applied by dipping a cotton swab in a blindly labeled 1 ml vial of liquid study medication, then swabbing a spot on the inner aspect of the upper arm over an area of about 10 to 15 mm diameter encircled by petroleum jelly. After application, the spot was covered by TEGADERM™ dressing, and subjects were advised to remove the dressing and wipe the spot with a wet cloth 3 hours later. The weight of the vial of study medication with the vial standing in it was measured immediately before and immediately after dosing each subject. The difference was the net mass of drug applied. In most cases, 10 mg to 20 mg of drug solution was applied to the arm.
# [6] = any dose tested (2%, 6%, 18% SADBE patch)
# [7] = female, Group 1, 2% SADBE patch
# [8] = female, Group 3, 18% SADBE patch
# [9] = any dose (2%, 6%, 18% SADBE patch)
structure (smiles),measurement,setting,value
"CCCCOc1c(OCCCC)c(=O)c1=O [SADBE, squaric acid dibutyl ester]",irritation category by Primary Irritation Index (pII),"[1]; 2% SADBE, 20 microliters patch, ~12 hours, first dose",moderately irritating
same,Primary Irritation Index (pII),"[1]; 2% SADBE, after the first dose",~3.5
same,"Primary Irritation Index (pII), transient peak",[1]; 2% SADBE,5
same,duration of moderate cutaneous irritation,"[1]; 2% SADBE, induction",> 15 days
same,duration of moderate levels of irritation,[1]; 2% SADBE,~17 days
same,time to return to non-irritating levels post-dermal-application,[1]; 2% SADBE,~22 days
same,irritation category by Primary Irritation Index (pII),"[1]; 2% SADBE, re-challenge (second dose)",moderately-severely irritating
same,duration of severe cutaneous irritation,[1]; 2% SADBE,1 to 2 days
same,irritation category by Primary Irritation Index (pII),"[1]; 6% SADBE, 20 microliters patch, ~12 hours, first dose",moderately irritating
same,Primary Irritation Index (pII),"[1]; 6% SADBE, after the first dose",3.0-4.0
same,"Primary Irritation Index (pII), transient peak",[1]; 6% SADBE,5.5
same,duration of moderate cutaneous irritation,"[1]; 6% SADBE, induction",~21 days
same,duration of moderate levels of irritation,[1]; 6% SADBE,~19 days
same,time to return to non-irritating levels post-dermal-application,[1]; 6% SADBE,~22 days
same,irritation category by Primary Irritation Index (pII),"[1]; 6% SADBE, re-challenge (second dose)",moderately-severely irritating
same,duration of severe cutaneous irritation,[1]; 6% SADBE,1 days
same,irritation category by Primary Irritation Index (pII),"[1]; 18% SADBE, 20 microliters patch, ~12 hours, first dose",moderately-severely irritating
same,Primary Irritation Index (pII),"[1]; 18% SADBE, first dose",~5.0
same,duration of moderate-severe cutaneous irritation,"[1]; 18% SADBE, induction",~22 days
same,duration of moderate levels of irritation,[1]; 18% SADBE,~24 days
same,time to return to non-irritating levels post-dermal-application,[1]; 18% SADBE,~26 days
same,irritation category by Primary Irritation Index (pII),"[1]; 18% SADBE, re-challenge (second dose)",severely irritating
same,duration of severe cutaneous irritation,[1]; 18% SADBE,~5 days
same,Primary Irritation Index (pII),"[1]; 18% SADBE, second dose",~6
same,time for which a single dose to the arm prevents outbreaks,"[2]; SADBE-DMSO solution (Palli et al., Chang et al.)",≥ 3 months
same,number of cold sore outbreaks,"[2]; single dose applied to the arm, for about four months (Palli et al., Chang et al.)",significantly decrease number of cold sore outbreaks
same,lymph node sections,[3]; all SADBE treated groups (summary),within normal limits
same,clinical monitoring observations,[3]; all doses,did not reveal any significant abnormalities
same,histopathology observed at all SADBE treated sites (summary),[3]; all doses,"mild to moderate parakeratosis, minimal multifocal necrosis and fatty infiltration"
same,systemic toxicity,"[3]; all doses, post-dosing and daily throughout study",no signs of systemic toxicity
same,effect on body weight,[3]; [6],no significant effect; also recorded: not affected
same,effect on food consumption,[3]; [6],no significant effect; also recorded: not affected
same,histopathology of treated skin sites: inflammatory infiltrates in the dermis,[3]; [7],multifocal rare to mild infiltrates of inflammatory cells
same,"histopathology of treated skin sites: necrosis, neovascularization, fibrosis, fatty infiltration",[3]; [7],"Necrosis, neovascularization, fibrosis and fatty infiltration were not noted"
same,histopathology of treated skin sites: inflammatory infiltrates in the dermis,"[3]; female, Group 2, 6% SADBE patch",multifocal rare to mild infiltrates of inflammatory cells
same,"histopathology of treated skin sites: necrosis, neovascularization, fatty infiltration","[3]; female, Group 2, 6% SADBE patch, narrow fibrous band in three animals","Necrosis, neovascularization and fatty infiltration were not noted"
same,histopathology of treated skin sites: inflammatory infiltrates in the dermis,[3]; [8],multifocal rare to mild infiltrates of inflammatory cells
same,"histopathology of treated skin sites: necrosis, neovascularization",[3]; [8],Minimal multifocal necrosis and neovascularization was noted
same,histopathology of treated skin sites: inflammatory infiltrates in the dermis,"[3]; male, Group 1, 2% SADBE patch",multifocal rare infiltrates of inflammatory cells
same,"histopathology of treated skin sites: necrosis, neovascularization, fibrosis, fatty infiltration","[3]; male, Group 1, 2% SADBE patch","Necrosis, neovascularization, fibrosis and fatty infiltration were not noted"
same,histopathology of treated skin sites: inflammatory infiltrates in the dermis,"[3]; male, Group 2, 6% SADBE patch",multifocal rare to mild infiltrates of inflammatory cells
same,"histopathology of treated skin sites: necrosis, neovascularization, fibrosis, fatty infiltration","[3]; male, Group 2, 6% SADBE patch","Necrosis, neovascularization, fibrosis and fatty infiltration were not noted"
same,histopathology of treated skin sites: inflammatory infiltrates in the dermis,"[3]; male, Group 3, 18% SADBE patch",multifocal rare to heavy infiltrates of inflammatory cells
same,"histopathology of treated skin sites: necrosis, neovascularization","[3]; male, Group 3, 18% SADBE patch","Minimal, multofocal necrosis and mild multifocal neovascularization was noted"
same,histopathology of treated skin sites: inflammatory infiltrates in the dermis,[4]; 2% & 6% SADBE,multifocal rare to mild infiltrates of inflammatory cells
same,histopathology of treated skin sites: inflammatory infiltrates in the dermis,[4]; 18% SADBE,multifocal mild to heavy infiltrates of inflammatory cells
same,histopathology: necrosis and fatty infiltration,[4]; all SADBE treated sites,minimal multifocal necrosis and fatty infiltration were observed
same,Cervical and Inguinal lymph node sections,"[4]; all animals, all doses",within normal limits
same,gross necropsy,[4]; all doses,No abnormalities were noted
same,histopathology: parakeratosis,[4]; all sections examined,mild to moderate parakeratosis
same,effect on body weight,[4]; [9],no significant effect
same,effect on food consumption,[4]; [9],no significant effect
same,histopathology: neovascularization and fibrosis,[4]; any tissue sections examined,Neovascularization and fibrosis was not noted
same,time to next outbreak from day 43 to 121,"[5]; 1-dose group (2% SADBE in DMSO day 1) vs placebo, p=0.024",superior to the placebo group
same,proportion of subjects with an outbreak in days 43-121,"[5]; 1-dose group (9/39), placebo 46%, p=0.036",23%
same,mean number of outbreaks in days 43-121,"[5]; 1-dose group, ± standard error, placebo 0.610±0.068, p=0.011",0.231±0.125
same,average number of moderate or severe outbreaks over days 1-365,"[5]; 1-dose, placebo 1.341±1.76, p=0.04",0.641±0.931
same,average number of moderate or severe outbreaks over days 43-121,"[5]; 1 dose of SADBE, placebo 0.390±0.703, p=0.04",0.128±0.339
same,"outbreak measures vs placebo, 2-dose group",[5]; 2% SADBE day 1 and 0.5% booster day 22,"superior to placebo these same measures, but not significantly so"
same,severity of administration site reactions (most common adverse event),[5]; topical 2% SADBE,all mild or moderate
same,time to resolution of administration site reactions,[5]; topical 2% SADBE,≤ 3 months
